Reference: patent US8614216B2

Legend:
[1] = Solid state chemical stability, HPLC analysis; assay type: physicochemical; conditions: open flask
Text: (§1) Samples were pulled at pre-determined time-points and analyzed for chemical stability.

[2] = Compaction studies (Carver Press, tablet hardness tester); assay type: physicochemical; conditions: 200 mg at 5000 psi, 0.8 cm die
Method: The resulting tensile strength and thickness of the compacts were measured using a VK 200 Tablet Hardness Tester and Mitutoyo thickness gauge.

[3] = Dynamic vapor sorption (DVS) hygroscopicity experiment; assay type: physicochemical
Method: All DVS measurements were carried out at 2.5% relative humidity change per hour.

[4] = Moisture induced weight change in lactate salts; assay type: physicochemical; conditions: 55% RH; listed as Lactate-trial 3
[5] = Solution state chemical stability, HPLC analysis; assay type: physicochemical; conditions: sealed vial
Text: as §1

physchem = conditions: 23 °C, water, thermodynamic from solid
[6] = Physical stability of the amorphous form on storage

CN1CCN(c2ccc3nc(-c4c(N)c5c(F)cccc5[nH]c4=O)[nH]c3c2)CC1 [Bis-lactate]
Area % at Time = 0 ([1]; 40° C./70% Relative humidity): 98.99 Area % | Area % at Time = 6 weeks ([1]; 40° C./70% Relative humidity): 97.92 Area %

CC(O)C(=O)O.CN1CCN(c2ccc3nc(-c4c(N)c5c(F)cccc5[nH]c4=O)[nH]c3c2)CC1 [Form A]
Forms Compact ([2]; listed as Lactate-trial 1): Yes | Tensile strength of compact ([2]; listed as Lactate-trial 1): 13.8 SC—Strong Cobb | Thickness of compact ([2]; listed as Lactate-trial 1): 3.06 mm | Forms Compact ([2]; listed as Lactate-trial 2): Yes | Tensile strength of compact ([2]; listed as Lactate-trial 2): 17.9 SC—Strong Cobb | Thickness of compact ([2]; listed as Lactate-trial 2): 2.92 mm | Forms Compact ([2]; listed as Lactate-trial 3): Yes | Tensile strength of compact ([2]; listed as Lactate-trial 3): 16.1 SC—Strong Cobb | Thickness of compact ([2]; listed as Lactate-trial 3): 2.97 mm | Forms Compact ([2]; listed as lactate salt): forms strong compacts without a tendency to cap or chip | Hygroscopicity in DVS experiment ([3]; below about 80% r.h., 2.5% relative humidity change per hour): not hygroscopic | Water uptake in DVS experiment ([3]; exposure to r.h. conditions above 90%): significant water uptake | Moisture induced % weight change [4]: 0.08% | Area % at Time = 0 ([5]; 5° C.): 98.80 Area % | Area % at Time = 7 days ([5]; 5° C.): 98.60 Area % | Area % at Time = 0 ([5]; ambient temperature): 98.80 Area % | Area % at Time = 7 days ([5]; ambient temperature): 98.71 Area % | Area % at Time = 0 ([1]; 30° C./60% Relative humidity): 98.41 Area % | Area % at Time = 6 weeks ([1]; 30° C./60% Relative humidity): 99.04 Area % | Area % at Time = 0 ([1]; 40° C./70% Relative humidity): 98.46 Area % | Area % at Time = 6 weeks ([1]; 40° C./70% Relative humidity): 98.55 Area % | solubility (physchem): > 400 mg/mL

CN1CCN(c2ccc3nc(-c4c(N)c5c(F)cccc5[nH]c4=O)[nH]c3c2)CC1 [Free base]
Area % at Time = 0 ([1]; 30° C./60% Relative humidity): 97.38 Area % | Area % at Time = 6 weeks ([1]; 30° C./60% Relative humidity): 97.83 Area % | Area % at Time = 0 ([1]; 40° C./70% Relative humidity): 97.77 Area % | Area % at Time = 6 weeks ([1]; 40° C./70% Relative humidity): 98.23 Area %

CC(O)C(=O)O.CN1CCN(c2ccc3nc(-c4c(N)c5c(F)cccc5[nH]c4=O)[nH]c3c2)CC1 [amorphous form]
Time stable ([6]; 75% relative humidity and 40° C.): more than 2 days | Stability of the solid form ([6]; ambient conditions): stable
